{"source": "patent EP1621203A1", "about": "“RNAIII-inhibiting peptides for treating HIV infection” (Genoscience, priority 2004, dated 2006)", "key": {"[1]": {"tested_on": "HIV-1 NL4-3", "format": "cell-based", "conditions": "for IC50: NL4-3", "procedure": "(§1) Cell cultures - Human peripheral blood lymphocytes (PBL) obtained from healthy HIV-seronegative donors were isolated by Ficoll-Hypaque gradient centrifugation and maintained in RPMI 1640 with ultraglutamine supplemented with […], 100 U/ml penicillin and […] streptamycin, and 10% heat-inactivated fetal calf serum. Cells were stimulated three days in the medium supplemented with 20 U/ml phytohemagglutinin P before evaluation of the antiviral activity. The human C8166 T-cell line was maintained in RPMI 1640 supplemented with 100 U/ml penicillin and […] streptamycin, and 10% heat-inactivated fetal calf serum.\n(§2) Evaluation of antiviral activity on human immune cells - Samples of 3 x 10^5 human PBL in […] are preincubated in 96-well plates with various concentrations of each peptide at 37°C (incubator flushed with 5% CO2). After 1 hour incubation, […] of viral suspension (HIV-1 NL4-3 strain) was added at a multiplicity of infection of 1,000 TCID50 per ml. After three washings, cells were cultured in 24-well plates with 1 ml of RPMI 1640 in the continuous presence of the peptides. The cell culture medium was replaced at day 4 post-infection. During this assay, treatment with antiviral compounds was permanent (before, during and after infection). Toxicity was evaluated through daily cell counts and trypan-blue exclusion assays. Infection of human PBL was assessed daily by virus-induced cytopathic effects (syncytium formation) and after 14 days by quantification of p24 antigen in culture supernatants. Measurements of HIV-1 p24 concentrations in the culture supernatant were achieved by ELISA with a detection cut-off of 5 pg/ml (p24 HIV kit, Perkin-Elmer). Similar assays were performed with human C8166 T-cells. Data on PBL are the mean of two separate experiments realized in duplicate."}, "[2]": {"tested_on": "HIV-1 NL4-3", "assay": "Infection assay on human PBL with HIV-1 NL4-3 (syncytium formation, p24 antigen ELISA)", "format": "cell-based", "conditions": "Human immunodeficiency virus 1, NL43, HIV-1 NL4-3 (1,000 TCID50), peptides continuously present; for IC50: read-out: IC50 (50% inhibitory concentration); for IC100: read-out: IC100 (100% inhibitory concentration)", "procedure": "as §1, §2"}}, "note": "Where a name gives a salt, the structure may show the parent alone. Read-outs that look alike come from different tables or passages of the source. Where a SMILES comes first, the peptide text is derived from it. Bridges are numbered along the chain shown (N, C = ends). Roman numbers before positions name the chains, in order. Where no end group is shown, it is not given here. [ ]: non-standard residue; d: D form. Ava = NCCCCC(=O)O"}
{"compound": "YSPWTNF-NH2 [YSPWTNF-NH2]", "values": [{"measurement": "IC50", "setting": "[1]", "value": 10, "unit": "nM"}]}
{"compound": "Nc1ccn([C@@H]2CS[C@H](CO)O2)c(=O)n1", "note": "[Epivir®, Lamivudine]", "values": [{"measurement": "IC50", "setting": "[2]", "value": 50, "unit": "nM"}, {"measurement": "IC100", "setting": "[2]", "value": 0.5, "unit": "µM"}]}
{"compound": "C[C@@H](O)[C@H](NC(=O)[C@H](Cc1c[nH]c2ccccc12)NC(=O)[C@@H]1CCCN1C(=O)[C@H](CO)NC(=O)[C@@H](N)Cc1ccc(O)cc1)C(=O)N[C@@H](CC(N)=O)C(=O)N[C@@H](Cc1ccccc1)C(=O)NCCCC[C@H](NC(=O)[C@H](Cc1ccccc1)NC(=O)[C@H](CC(N)=O)NC(=O)[C@@H](NC(=O)[C@H](Cc1c[nH]c2ccccc12)NC(=O)[C@@H]1CCCN1C(=O)[C@H](CO)NC(=O)[C@@H](N)Cc1ccc(O)cc1)[C@@H](C)O)C(=O)NCCCC[C@H](NC(=O)[C@H](CCCCNC(=O)[C@H](Cc1ccccc1)NC(=O)[C@H](CC(N)=O)NC(=O)[C@@H](NC(=O)[C@H](Cc1c[nH]c2ccccc12)NC(=O)[C@@H]1CCCN1C(=O)[C@H](CO)NC(=O)[C@@H](N)Cc1ccc(O)cc1)[C@@H](C)O)NC(=O)[C@H](Cc1ccccc1)NC(=O)[C@H](CC(N)=O)NC(=O)[C@@H](NC(=O)[C@H](Cc1c[nH]c2ccccc12)NC(=O)[C@@H]1CCCN1C(=O)[C@H](CO)NC(=O)[C@@H](N)Cc1ccc(O)cc1)[C@@H](C)O)C(N)=O", "note": "[(YSPWTNF)4-K2-K-NH2] (I: H-YSPWTNFKK-NH2 / II: H-YSPWTNFK / III: H-YSPWTNF / IV: H-YSPWTNF; amide I:8-IV:C, I:9-II:C, II:8-III:C)", "values": [{"measurement": "IC50", "setting": "[1]", "value": 1000, "unit": "nM"}]}
{"compound": "C[C@H](O)[C@@H](NC(=O)[C@@H](Cc1c[nH]c2ccccc12)NC(=O)[C@H]1CCCN1C(=O)[C@@H](CO)NC(=O)[C@H](N)Cc1ccc(O)cc1)C(=O)N[C@H](CC(N)=O)C(=O)N[C@H](Cc1ccccc1)C(N)=O", "note": "[YdSdPdWdTdNdFd-NH2] (H-[dY][dS][dP][dW][dT][dN][dF]-NH2)", "values": [{"measurement": "IC50", "setting": "[1]", "value": 5000, "unit": "nM"}]}
{"compound": "CC(C)(C)NC(=O)[C@@H]1CN(Cc2cccnc2)CCN1C[C@@H](O)C[C@@H](Cc1ccccc1)C(=O)N[C@H]1c2ccccc2C[C@H]1O", "note": "[Crixivan®, Indinavir Sulfate]", "values": [{"measurement": "IC50", "setting": "[2]", "value": 70, "unit": "nM"}, {"measurement": "IC100", "setting": "[2]", "value": 0.5, "unit": "µM"}]}
{"compound": "C[C@@H](O)[C@H](NC(=O)[C@H](Cc1c[nH]c2ccccc12)NC(=O)[C@@H]1CCCN1C(=O)[C@H](CO)NC(=O)[C@@H](N)Cc1ccc(O)cc1)C(=O)N[C@@H](CC(N)=O)C(=O)N[C@@H](Cc1ccccc1)C(=O)NCCCCC(N)=O", "note": "[YSPWTNF-valerate-NH2] (H-YSPWTNF[Ava]-NH2; N-terminus assumed)", "values": [{"measurement": "IC50", "setting": "[1]", "value": 500, "unit": "nM"}, {"measurement": "IC100 (100% inhibitory concentration)", "setting": "[1]; human PBL, HIV-1 NL4-3 (1,000 TCID50), peptides continuously present", "value": "> 5", "unit": "µM"}]}
{"compound": "YSPITNF-NH2 [YSPITNF-NH2]", "values": [{"measurement": "IC50", "setting": "[1]", "value": 300, "unit": "nM"}]}
